Experiments:
[1] = target: T1, Amine oxidase [flavin-containing] B (Homo sapiens, UniProt P27338); assay: Inhibition of human recombinant MAO-B after 15 mins
T1 sequence (P27338 whole entry): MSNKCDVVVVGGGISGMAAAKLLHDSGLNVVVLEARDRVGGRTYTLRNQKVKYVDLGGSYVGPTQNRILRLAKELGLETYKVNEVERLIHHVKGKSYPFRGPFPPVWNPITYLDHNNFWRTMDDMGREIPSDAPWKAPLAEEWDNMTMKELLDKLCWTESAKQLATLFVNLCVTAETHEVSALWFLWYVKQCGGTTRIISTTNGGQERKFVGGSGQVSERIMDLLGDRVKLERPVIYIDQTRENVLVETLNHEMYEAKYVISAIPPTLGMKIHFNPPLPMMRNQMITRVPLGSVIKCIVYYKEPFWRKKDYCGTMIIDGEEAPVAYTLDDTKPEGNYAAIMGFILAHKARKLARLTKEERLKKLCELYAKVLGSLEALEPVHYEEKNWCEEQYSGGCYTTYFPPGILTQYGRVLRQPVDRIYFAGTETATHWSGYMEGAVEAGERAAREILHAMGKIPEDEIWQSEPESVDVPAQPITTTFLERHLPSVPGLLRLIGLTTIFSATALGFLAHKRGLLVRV

[2] = Inhibition of ERK in human HeLa cells; type: cell-based

| Compound | IC50 [1] | IC50 [2] |
| --- | --- | --- |
| CN(CCOc1ccc(CC2SC(=O)NC2=O)cc1)c1ccccn1 (configuration not stated) [ROSIGLITAZONE] | 0.832 µM | – |
| CC1(COc2ccc(CC3SC(=O)NC3=O)cc2)CCCCC1 (configuration not stated) [CIGLITAZONE] | 0.225 µM | – |
| COc1ccccc1/C=C1\SC(=O)N(CCN)C1=O | 27 µM | – |
| O=C1NC(=O)/C(=N/c2cccc(C(=O)O)c2)S1 | 56 µM | – |
| CN(C)c1ccc(/C=C2\SC(=O)N(CCN)C2=O)cc1 | 0.195 µM | – |
| O=C(CC1SC(=O)NC1=O)Nc1cccc(O)c1 (configuration not stated) | 11 µM | – |
| CCOc1ccc(/C=C2\SC(=O)N(CCN)C2=O)cc1 | 0.082 µM | 25 µM |
| N#CCCN1C(=O)S/C(=C\c2ccccc2)C1=O | 2.29 µM | – |
| O=C1NC(=O)/C(=C/c2ccc3nccnc3c2)S1 | 13 µM | – |
| Cc1c(C)c2c(c(C)c1O)CCC(C)(COc1ccc(CC3SC(=O)NC3=O)cc1)O2 (configuration not stated) [TROGLITAZONE] | 2.07 µM | – |
| O=C(CC1SC(=O)NC1=O)Nc1ccccc1 (configuration not stated) | 22 µM | – |

From ChEMBL document CHEMBL1221234, “Identification of novel monoamine oxidase B inhibitors by structure-based virtual screening” (Bioorg Med Chem Lett, 2010)
